Measured values: ChEMBL document CHEMBL5725304, “3,4-dihydro-2H-isoquinoline-1-one and 2,3-dihydro-isoindol-1-one compounds” (2017)
“And” between values parts separate entries of the source, which are not always exact repeats. Equal values may be shown once.

Assays:
[1] = target: T1, Cytochrome P450 11B1, mitochondrial (Homo sapiens, UniProt P15538); assay: (§1) Cellular Enzyme Assay: G-402 cells expressing CYP11 constructs were established as described above and maintained in McCoy's 5a Medium Modified, ATCC Catalog No. 30-2007 containing 10% FCS and 400 ug/ml G418 (Geneticin) at 37° C. under an atmosphere of 5% CO2/95% air. Cellular enzyme assays were performed in DMEM/F12 medium containing 2.5% charcoal treated FCS and appropriate concentration of substrate (0.3-10 uM 11-Deoxycorticosterone, 11-Deoxycortisol or Corticosterone). For assaying enzymatic activity, cells were plated onto 96 well plates and incubated for 16 h. An aliquot of the supernatant is then transferred and analyzed for the concentration of the expected product (Aldosterone for CYP11B2; Cortisol for CYP11B1). The concentrations of these steroids can be determined using HTRF assays from CisBio analyzing either Aldosterone or Cortisol.
T1 sequence (P15538 whole entry): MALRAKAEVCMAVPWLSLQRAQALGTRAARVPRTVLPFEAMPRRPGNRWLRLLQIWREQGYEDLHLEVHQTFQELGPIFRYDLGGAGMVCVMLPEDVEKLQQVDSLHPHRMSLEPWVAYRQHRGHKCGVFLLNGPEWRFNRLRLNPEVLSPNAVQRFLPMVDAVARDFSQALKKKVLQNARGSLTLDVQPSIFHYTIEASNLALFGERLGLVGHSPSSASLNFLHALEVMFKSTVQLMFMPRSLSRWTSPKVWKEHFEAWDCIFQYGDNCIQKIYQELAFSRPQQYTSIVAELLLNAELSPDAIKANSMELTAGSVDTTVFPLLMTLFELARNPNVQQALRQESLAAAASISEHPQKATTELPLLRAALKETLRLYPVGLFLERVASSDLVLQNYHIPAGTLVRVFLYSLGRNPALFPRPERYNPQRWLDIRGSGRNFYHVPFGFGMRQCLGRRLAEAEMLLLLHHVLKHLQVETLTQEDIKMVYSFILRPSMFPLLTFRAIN

[2] = target: T2, Cytochrome P450 11B2, mitochondrial (Homo sapiens, UniProt P19099); assay: as §1
T2 sequence (P19099 whole entry): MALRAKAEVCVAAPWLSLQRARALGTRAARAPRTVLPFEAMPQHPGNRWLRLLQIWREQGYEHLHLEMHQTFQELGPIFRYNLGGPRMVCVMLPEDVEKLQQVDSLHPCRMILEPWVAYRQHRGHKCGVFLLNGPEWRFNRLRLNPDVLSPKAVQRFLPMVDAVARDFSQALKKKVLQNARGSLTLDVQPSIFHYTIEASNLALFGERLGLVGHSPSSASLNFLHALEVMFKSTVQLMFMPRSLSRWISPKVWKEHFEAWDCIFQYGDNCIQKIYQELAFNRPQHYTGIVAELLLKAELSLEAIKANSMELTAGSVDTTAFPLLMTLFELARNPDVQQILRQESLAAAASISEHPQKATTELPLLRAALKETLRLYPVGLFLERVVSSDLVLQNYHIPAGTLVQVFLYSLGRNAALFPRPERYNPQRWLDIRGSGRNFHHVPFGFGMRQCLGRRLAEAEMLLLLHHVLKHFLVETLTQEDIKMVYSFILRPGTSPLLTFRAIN

EC50 [1]: 0.188 µM and 0.124 µM
EC50 [2]: 0.001 µM and 0.0006 µM
SMILES: CCS(=O)(=O)N1CCC(N(C)c2cncc(N3C(=O)c4ccc(Cl)cc4C3(C)C)c2)C1 (single isomer, unassigned)
